{"source": "the supplement of paper PMC10307832", "test_in_all_cases": "relative viability (nuclei count vs DMSO), 5 days (fraction); higher = more cells survive", "key": {"[1]": {"compound": "CNC(=O)c1ccccc1Sc1ccc2c(/C=C/c3ccccn3)n[nH]c2c1 [Axitinib] + COc1cc2c(Oc3ccc(NC(=O)C4(C(=O)Nc5ccc(F)cc5)CC4)cc3F)ccnc2cc1OCCCN1CCOCC1 [Foretinib] (partner 0.25 µM)", "how_it_was_run": "(§1)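 Lung cancer cell lines were pin-tool dosed in 1536-well plates on the day after seeding, with either a lone drug or a fixed anchor-drug dose plus five library-drug doses (not always all listed) in √10 steps. Nuclei were counted on 4× images after 5 days. Relative viability is the ratio of treated-well to vehicle-well nuclei counts, with each value a median of duplicate plates.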"}, "[2]": {"compound": "CNC(=O)c1ccccc1Sc1ccc2c(/C=C/c3ccccn3)n[nH]c2c1 [Axitinib] + COc1cccc2cc(-c3nc([C@H]4CC[C@H](C(=O)O)CC4)n4ncnc(N)c34)[nH]c12 [OSI-027] (partner 0.5 µM)", "how_it_was_run": "as §1"}, "[3]": {"compound": "Nc1nc(Nc2ccc3c(c2)CC[C@@H](N2CCCC2)CC3)nn1-c1cc2c(nn1)-c1ccccc1CCC2 [Bemcentinib] + CS(=O)(=O)CCNCc1ccc(-c2ccc3ncnc(Nc4ccc(OCc5cccc(F)c5)c(Cl)c4)c3c2)o1 [Lapatinib] (partner 2 µM)", "how_it_was_run": "as §1"}, "[4]": {"compound": "Nc1nc(Nc2ccc3c(c2)CC[C@@H](N2CCCC2)CC3)nn1-c1cc2c(nn1)-c1ccccc1CCC2 [Bemcentinib] + Nc1nc2[nH]cc(CCc3ccc(C(=O)N[C@@H](CCC(=O)O)C(=O)O)cc3)c2c(=O)[nH]1 [Pemetrexed] (partner 0.2 µM)", "how_it_was_run": "as §1"}}}
{"cell line": "NCI-H650", "values": [{"measurement": "relative viability", "setting": "[1]; first compound 0.005 µM", "value": 1.08}, {"measurement": "relative viability", "setting": "[1]; first compound 0.01581 µM", "value": 1.12}, {"measurement": "relative viability", "setting": "[1]; first compound 0.05 µM", "value": 0.953}, {"measurement": "relative viability", "setting": "[1]; first compound 0.1581 µM", "value": 0.984}, {"measurement": "relative viability", "setting": "[1]; first compound 0.5 µM", "value": 1.07}, {"measurement": "relative viability", "setting": "[2]; first compound 0.005 µM", "value": 0.533}, {"measurement": "relative viability", "setting": "[2]; first compound 0.01581 µM", "value": 0.486}, {"measurement": "relative viability", "setting": "[2]; first compound 0.05 µM", "value": 0.517}, {"measurement": "relative viability", "setting": "[2]; first compound 0.1581 µM", "value": 0.571}, {"measurement": "relative viability", "setting": "[2]; first compound 0.5 µM", "value": 0.584}, {"measurement": "relative viability", "setting": "[3]; first compound 0.04 µM", "value": 0.885}, {"measurement": "relative viability", "setting": "[3]; first compound 0.1265 µM", "value": 1.02}, {"measurement": "relative viability", "setting": "[3]; first compound 0.4 µM", "value": 0.906}, {"measurement": "relative viability", "setting": "[3]; first compound 1.265 µM", "value": 0.759}, {"measurement": "relative viability", "setting": "[3]; first compound 4 µM", "value": 0.775}, {"measurement": "relative viability", "setting": "[4]; first compound 0.04 µM", "value": 0.843}, {"measurement": "relative viability", "setting": "[4]; first compound 0.1265 µM", "value": 1.06}, {"measurement": "relative viability", "setting": "[4]; first compound 0.4 µM", "value": 1.09}, {"measurement": "relative viability", "setting": "[4]; first compound 1.265 µM", "value": 0.941}, {"measurement": "relative viability", "setting": "[4]; first compound 4 µM", "value": 1.01}]}
